# Patent US7902229B2, “Anthranilamide pyridinureas as vascular endothelial growth factor (VEGF) receptor kinase inhibitors” (Bayer Schering Pharma AG, priority 2004, dated 2011)
# Experiments:
# [1] = target: T1, KDR-Kinase (VEGFR-2) (Homo sapiens, UniProt P35968); test: KDR Kinase Inhibition; assay type: biochemical; conditions: GST-kinase domain fusion construct of the KDR kinase; poly(Glu4Tyr) substrate, 32P-ATP, 10 min
# T1 construct: GST-kinase domain fusion construct of the KDR kinase; GST
# T1 sequence (P35968 834-1162 limits assumed, species assumed): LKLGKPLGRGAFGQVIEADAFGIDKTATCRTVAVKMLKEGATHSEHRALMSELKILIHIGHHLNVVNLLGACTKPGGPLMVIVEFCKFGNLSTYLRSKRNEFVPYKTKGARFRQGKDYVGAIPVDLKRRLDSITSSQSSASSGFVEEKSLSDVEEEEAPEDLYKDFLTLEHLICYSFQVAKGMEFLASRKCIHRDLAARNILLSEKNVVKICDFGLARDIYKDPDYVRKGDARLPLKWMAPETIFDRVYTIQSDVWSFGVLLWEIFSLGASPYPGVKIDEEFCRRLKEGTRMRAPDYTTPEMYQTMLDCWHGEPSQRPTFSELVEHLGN
# Protocol: Kinase activity was measured with a GST-kinase domain fusion construct of the KDR kinase according to the following protocol to obtain concentration response curves. Components were added into a microtiterplate in the following sequence: 10 μl of inhibitor in threefold final concentration [3% DMSO in buffer (40 mM TrisCl pH 7.5; 1 mM DTT, 1 mM MnCl2, 10 mM MgCl2, 2.5 Promille Polyethyleneglycol 20000)] and 10 μ, of substrate mixture [24 μM ATP, 24 μg/ml poly(Glu4Tyr) in buffer, specific activity approx. 500 cpm/pmol ^32P-[…]ATP]. Reaction was started by adding 10 μl of enzyme preparation diluted appropriately in buffer that contains 10 μM vanadate. After incubation for exactly 10 min the reaction was stopped by adding of 10 μl stop solution (250 mM EDTA). 10 μl of the reaction mixture were transferred to phosphocellulose filters. The filters were washed in 0.1% phosphoric acid, dried before meltilex-scintillator was applied (Wallac, Perkin-Elmer) and the radioactivity was counted.
# [2] = target: T2, human Cytochrome P 450 isoenzyme 2C19 (Homo sapiens, UniProt P33261); test: Cytochrome P450 Inhibition (2C19); assay type: in vitro ADME; conditions: baculovirus/insect cell-expressed human isoenzyme, according to Crespi et al.; read-out: IC50 CYP 2C19
# T2 construct: host or cells: baculovirus/insect cells
# T2 sequence (P33261 whole entry): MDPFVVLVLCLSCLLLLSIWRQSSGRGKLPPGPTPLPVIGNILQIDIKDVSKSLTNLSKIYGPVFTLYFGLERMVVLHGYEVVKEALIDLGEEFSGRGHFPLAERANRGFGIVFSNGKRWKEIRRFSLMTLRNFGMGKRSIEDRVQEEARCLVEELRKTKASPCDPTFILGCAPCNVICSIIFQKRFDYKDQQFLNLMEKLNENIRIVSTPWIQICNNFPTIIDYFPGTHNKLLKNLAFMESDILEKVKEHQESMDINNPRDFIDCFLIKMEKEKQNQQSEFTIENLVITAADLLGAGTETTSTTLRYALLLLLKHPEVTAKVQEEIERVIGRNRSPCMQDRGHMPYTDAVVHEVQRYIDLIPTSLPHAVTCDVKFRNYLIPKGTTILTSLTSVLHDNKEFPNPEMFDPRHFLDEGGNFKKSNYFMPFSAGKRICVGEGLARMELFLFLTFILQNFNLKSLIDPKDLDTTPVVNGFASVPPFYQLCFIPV
# Protocol: (§1) Cytochrome P450 Inhibition
# (§2) The Cytochrome P450 isoenzyme inhibition was performed according to the publication of Crespi et al. (Anal. Biochem., 1997, 248, 188-190) with use of the baculovirus/insect cell-expressed, human Cytochrome P 450 isoenzymes (2C9 and 2C19).
# [3] = target: T3, human Cytochrome P 450 isoenzyme 2C9 (Homo sapiens, UniProt P11712); test: Cytochrome P450 Inhibition (2C9); assay type: in vitro ADME; conditions: baculovirus/insect cell-expressed human isoenzyme, according to Crespi et al.; read-out: IC50 CYP 2C9
# T3 construct: host or cells: baculovirus/insect cells
# T3 sequence (P11712 whole entry): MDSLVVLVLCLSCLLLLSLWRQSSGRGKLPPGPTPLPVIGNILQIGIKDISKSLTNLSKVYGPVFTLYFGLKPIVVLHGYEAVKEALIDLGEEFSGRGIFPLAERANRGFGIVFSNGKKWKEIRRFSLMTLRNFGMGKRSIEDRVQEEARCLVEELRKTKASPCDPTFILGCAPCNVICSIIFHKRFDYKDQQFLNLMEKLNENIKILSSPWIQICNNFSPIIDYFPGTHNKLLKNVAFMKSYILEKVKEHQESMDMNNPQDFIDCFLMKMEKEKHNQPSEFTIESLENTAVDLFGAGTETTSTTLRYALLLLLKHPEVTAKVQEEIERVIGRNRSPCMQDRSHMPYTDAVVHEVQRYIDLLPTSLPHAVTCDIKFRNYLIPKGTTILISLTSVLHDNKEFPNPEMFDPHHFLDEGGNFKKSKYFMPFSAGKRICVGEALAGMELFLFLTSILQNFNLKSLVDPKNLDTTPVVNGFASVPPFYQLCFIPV
# Protocol: as §1, §2
IC50 [1],IC50 [2],melting point,IC50 [3],Compound
0.025 µM,19 µM,184 °C,6.7 µM,"CN(C)C(=O)Nc1cc(CNc2ccccc2C(=O)Nc2ccc3cn(C)nc3c2)ccn1 [Example 1.0, 2-{[2-(3,3-dimethyl-ureido)-pyridin-4-ylmethyl]-amino}-N-(2-methyl-2H-indazol-6-yl)-benzamide]"
0.035 µM,9.9 µM,–,3.8 µM,"CCN(CC)C(=O)Nc1cc(CNc2ccccc2C(=O)Nc2ccc3cn(C)nc3c2)ccn1 [Example 1.1, 2-{[2-(3,3-diethyl-ureido)-pyridin-4-ylmethyl]-amino}-N-(2-methyl-2H-indazol-6-yl)-benzamide]"
0.024 µM,26 µM,–,6.6 µM,"CCN(C)C(=O)Nc1cc(CNc2ccccc2C(=O)Nc2ccc3cn(C)nc3c2)ccn1 [Example 1.4, 2-{[2-(3-ethyl-3-methyl-ureido)-pyridin-4-ylmethyl]-amino}-N-(2-methyl-2H-indazol-6-yl)-benzamide]"
0.036 µM,6.4 µM,–,10 µM,"CN(C)C(=O)Nc1cc(CNc2ccccc2C(=O)Nc2ccc3c(ccc(=O)n3C)c2)ccn1 [Example 2.2, 2-{[2-(3,3-dimethyl-ureido)-pyridin-4-ylmethyl]-amino}-N-(1-methyl-2-oxo-1,2-dihydro-quinolin-6-yl)-benzamide]"
